How the values were obtained:
Type in all cases: in vivo
[1] = system: barnyardgrass (Echinochloa crus-galli); assay: Test A pre-/postemergence plant response
In short: (§1)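 Greenhouse trial, ~10 days. Soil (loam/sand) sprayed preemergence after seeding; emerged plants (1–2 leaf, 2–10 cm) sprayed postemergence in parallel. Response = visual injury vs untreated control, 0–100.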

[2] = system: giant foxtail (Setaria faberii); assay: Test A pre-/postemergence plant response
In short: as §1

[3] = system: velvetleaf (Abutilon theophrasti); assay: Test A pre-/postemergence plant response
In short: as §1

[4] = system: wheat (Triticum aestivum); assay: Test A pre-/postemergence plant response
In short: as §1

corn (Zea mays) = assay: Test A pre-/postemergence plant response
In short: as §1

[5] = system: large crabgrass (Digitaria sanguinalis); assay: Test A pre-/postemergence plant response
In short: as §1

[6] = system: pigweed (Amaranthus retroflexus); assay: Test A pre-/postemergence plant response
In short: as §1

[7] = system: morningglory (Ipomoea spp.); assay: Test A pre-/postemergence plant response
In short: as §1

[8] = system: winter barley (Hordeum vulgare); assay: Test B postemergence plant response; settings: Postemergence
In short: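 Plants grown in peat/vermiculite medium were sprayed postemergence at 2–18 cm height (1- to 4-leaf stage). After 13–15 days in the greenhouse, response was rated visually against untreated controls on a 0–100 scale (0 no effect, 100 complete control).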

[9] = system: barnyardgrass (Echinochloa crus-galli); assay: Test B flooded paddy test; settings: for Plant response rating, Flood, Barnyardgrass: 250 g ai/ha, flooded paddy test, visual rating on 0 to 100 scale (0 no effect, 100 complete control) after 13 to 15 days; for Plant response rating, Barnyardgrass: Flood (flooded paddy test), 13 to 15 days
In short: (§2)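 Plants were grown to the 2-leaf stage, then pots were flooded to 3 cm above the soil and compounds were applied directly into the paddy water. That depth was held throughout. After 13 to 15 days in a greenhouse, injury was visually rated against controls on a 0–100 scale.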

[10] = system: ducksalad (Heteranthera limosa); assay: Test B flooded paddy test; settings: for Plant response rating, Flood, Ducksalad: 250 g ai/ha, flooded paddy test, visual rating on 0 to 100 scale (0 no effect, 100 complete control) after 13 to 15 days; for Plant response rating, Ducksalad: Flood (flooded paddy test), 13 to 15 days
In short: as §2

[11] = system: umbrella sedge (Cyperus difformis); assay: Test B flooded paddy test; settings: for Plant response rating, Flood, Sedge, Umbrella: 250 g ai/ha, flooded paddy test, visual rating on 0 to 100 scale (0 no effect, 100 complete control) after 13 to 15 days; for Plant response rating, Sedge, Umbrella: Flood (flooded paddy test), 13 to 15 days
In short: as §2

rice (Oryza sativa) = assay: Test B flooded paddy test; settings: for Plant response rating, Flood, Rice: 250 g ai/ha, flooded paddy test, visual rating on 0 to 100 scale (0 no effect, 100 complete control) after 13 to 15 days; for Plant response rating, Rice: Flood (flooded paddy test), 13 to 15 days
In short: as §2

[12] = Postemergence, 125 g ai/ha, visual injury, 0 to 100 scale (0 no effect, 100 complete control), approx. ten days
[13] = Postemergence, 500 g ai/ha, 0 to 100 scale, 0 = no effect, 100 = complete control, approx. ten days
[14] = Preemergence, 125 g ai/ha, 0 to 100 scale, 0 = no effect, 100 = complete control
[15] = Preemergence, 500 g ai/ha, visual injury, 0 to 100 scale (0 no effect, 100 complete control), approx. ten days
[16] = 31 g ai/ha, scale 0 to 100 (0 no effect, 100 complete control)
[17] = 62 g ai/ha, scale 0 (no effect) to 100 (complete control), 13 to 15 days
[18] = 31 g ai/ha, scale of 0 to 100 where 0 is no effect and 100 is complete control
[19] = 62 g ai/ha, scale 0 to 100, 0 is no effect, 100 is complete control
[20] = 125 g ai/ha, scale 0 to 100, 0 is no effect, 100 is complete control

Cc1ccccc1-n1c(-c2cccc(Cl)c2)ncc(C(=O)C2=C(O)CCCC2=O)c1=O [Compound 36]
20: Plant response rating, Wheat [4, 15] | Plant response rating, Barley ([8]; 125 g ai/ha, visual rating after 13 to 15 days, scale 0 (no effect) to 100 (complete control)) | Plant response rating, Flood, Sedge, Umbrella [11] | Plant response rating, Rice (rice (Oryza sativa); [20])
60: Plant response rating, Foxtail, Giant [2, 15] | Plant response rating, Velvetleaf [3, 14] | Plant response rating, Corn (corn (Zea mays); [13])
90: Barnyardgrass plant response rating [1, 12] | Pigweed plant response rating [6, 12]
5: Plant response rating, Barley [8, 16]
40: Plant response rating, Flood, Ducksalad [10]
30: Plant response rating, Morningglory [7, 15]
15: Plant response rating, Flood, Barnyardgrass [9]
50: Plant response rating, Barnyardgrass [1, 15] | Morningglory plant response rating [7, 12]
10: Plant response rating, Barnyardgrass [1, 14] | Plant response rating, Foxtail, Giant [2, 14] | Plant response rating, Crabgrass, Large [5, 14] | Plant response rating, Barley [8, 17]
100: Plant response rating, Barnyardgrass [1, 13] | Plant response rating, Foxtail, Giant [2, 13] | Velvetleaf plant response rating [3, 12] | Plant response rating, Velvetleaf [3, 13] | Plant response rating, Velvetleaf [3, 15] | Plant response rating, Crabgrass, Large [5, 13] | Plant response rating, Pigweed [6, 13] | Plant response rating, Morningglory [7, 13]
0: Wheat plant response rating [4, 12] | Plant response rating, Wheat [4, 13] | Plant response rating, Wheat [4, 14] | Corn plant response rating (corn (Zea mays); [12]) | Plant response rating, Corn (corn (Zea mays); [14]) | Plant response rating, Corn (corn (Zea mays); [15]) | Plant response rating, Pigweed [6, 14] | Plant response rating, Morningglory [7, 14] | Plant response rating, Barnyardgrass [9, 18] | Plant response rating, Barnyardgrass [9, 19] | Plant response rating, Barnyardgrass [9, 20] | Plant response rating, Ducksalad [10, 18] | Plant response rating, Ducksalad [10, 19] | Plant response rating, Ducksalad [10, 20] | Plant response rating, Sedge, Umbrella [11, 18] | Plant response rating, Sedge, Umbrella [11, 19] | Plant response rating, Sedge, Umbrella [11, 20] | Plant response rating, Rice (rice (Oryza sativa); [18]) | Plant response rating, Rice (rice (Oryza sativa); [19])
35: Plant response rating, Flood, Rice (rice (Oryza sativa))
80: Foxtail, Giant plant response rating [2, 12] | Crabgrass, Large plant response rating [5, 12] | Plant response rating, Crabgrass, Large [5, 15] | Plant response rating, Pigweed [6, 15]

Cc1ccc(-n2c(-c3ccccc3)ncc(C(=O)C3=C(O)CCCC3=O)c2=O)cc1 [Compound 8]
45: Plant response rating, Flood, Barnyardgrass [9]
95: Plant response rating, Flood, Sedge, Umbrella [11]
90: Barnyardgrass plant response rating [1, 12] | Foxtail, Giant plant response rating [2, 12] | Plant response rating, Foxtail, Giant [2, 15] | Plant response rating, Velvetleaf [3, 15] | Plant response rating, Crabgrass, Large [5, 13] | Plant response rating, Pigweed [6, 14] | Plant response rating, Pigweed [6, 15] | Morningglory plant response rating [7, 12] | Plant response rating, Flood, Ducksalad [10]
20: Plant response rating, Wheat [4, 15] | Plant response rating, Corn (corn (Zea mays); [15]) | Barley plant response rating ([8]; 250 g ai/ha, scale 0 to 100) | Plant response rating, Barnyardgrass [9, 20]
80: Plant response rating, Barnyardgrass [1, 15] | Crabgrass, Large plant response rating [5, 12]
30: Plant response rating, Ducksalad [10, 18] | Plant response rating, Sedge, Umbrella [11, 18]
70: Plant response rating, Morningglory [7, 15]
15: Plant response rating, Rice (rice (Oryza sativa); [20])
10: Plant response rating, Barnyardgrass [1, 14] | Wheat plant response rating [4, 12] | Corn plant response rating (corn (Zea mays); [12])
85: Plant response rating, Ducksalad [10, 19] | Plant response rating, Ducksalad [10, 20] | Plant response rating, Sedge, Umbrella [11, 20]
65: Plant response rating, Sedge, Umbrella [11, 19]
5: Plant response rating, Barley ([8]; 125 g ai/ha, scale 0 to 100 (0 no effect, 100 complete control), 13 to 15 days)
100: Plant response rating, Barnyardgrass [1, 13] | Plant response rating, Foxtail, Giant [2, 13] | Velvetleaf plant response rating [3, 12] | Plant response rating, Velvetleaf [3, 13] | Plant response rating, Crabgrass, Large [5, 15] | Pigweed plant response rating [6, 12] | Plant response rating, Pigweed [6, 13] | Plant response rating, Morningglory [7, 13]
40: Plant response rating, Foxtail, Giant [2, 14] | Plant response rating, Crabgrass, Large [5, 14]
0: Plant response rating, Wheat [4, 14] | Plant response rating, Corn (corn (Zea mays); [14]) | Plant response rating, Morningglory [7, 14] | Plant response rating, Barley [8, 16] | Plant response rating, Barley [8, 17] | Plant response rating, Barnyardgrass [9, 18] | Plant response rating, Barnyardgrass [9, 19] | Plant response rating, Rice (rice (Oryza sativa); [18]) | Plant response rating, Rice (rice (Oryza sativa); [19])
50: Plant response rating, Velvetleaf [3, 14] | Plant response rating, Wheat [4, 13] | Plant response rating, Corn (corn (Zea mays); [13]) | Plant response rating, Flood, Rice (rice (Oryza sativa))

From US8952024B2, “Herbicidal pyrimidone derivatives” (E I du Pont de Nemours and Company, priority 2009, dated 2015)
